Earlier results as cited in US20050123607A1, “Pharmaceutical formulation of valaciclovir” (priority 2003, published 2005).

Experiments:
[1] = especially in its salt form
[2] = oral administration

- solubility (in words) [1]: very soluble
- absorption from the gastrointestinal tract / bioavailability (in words) [2]: much improved bioavailability
SMILES: CC(C)[C@H](N)C(=O)OCCOCn1cnc2c(=O)[nH]c(N)nc21 [valaciclovir]
